Among the data in ChEMBL document CHEMBL1150321 are Activity values, retold here.

The source made the active and inactive calls. No cut-off for these calls is given here.

In experiment [1] the target is Baculoviral IAP repeat-containing protein 2 (Homo sapiens) (UniProt Q13490). Put plainly: Binding affinity to human BIR3 domain of cIAP1 by photoaffinity labeling assay in presence of (S)-2-((2S,3R)-3-Amino-2-hydroxy-4-phenyl-butyrylamino)-4-methyl-pentanoic acid methyl ester.
The target is the same in experiment [2]. Put plainly: Binding affinity to human BIR3 domain of cIAP1 by fluorescence polarization assay. A general note: Fluorescence polarisation rises when a labelled molecule tumbles more slowly, as on binding a larger partner.
Experiment [3] has the same target. Briefly: Binding affinity to human BIR3 domain of cIAP1 at 150 uM after 30 mins by photoaffinity labeling assay in presence of (S)-2-((2S,3R)-3-Amino-2-hydroxy-4-phenyl-butyrylamino)-4-methyl-pentanoic acid methyl ester.

Chain of Baculoviral IAP repeat-containing protein 2 (Homo sapiens) (Q13490 whole entry, looked up, the tested form may be a part): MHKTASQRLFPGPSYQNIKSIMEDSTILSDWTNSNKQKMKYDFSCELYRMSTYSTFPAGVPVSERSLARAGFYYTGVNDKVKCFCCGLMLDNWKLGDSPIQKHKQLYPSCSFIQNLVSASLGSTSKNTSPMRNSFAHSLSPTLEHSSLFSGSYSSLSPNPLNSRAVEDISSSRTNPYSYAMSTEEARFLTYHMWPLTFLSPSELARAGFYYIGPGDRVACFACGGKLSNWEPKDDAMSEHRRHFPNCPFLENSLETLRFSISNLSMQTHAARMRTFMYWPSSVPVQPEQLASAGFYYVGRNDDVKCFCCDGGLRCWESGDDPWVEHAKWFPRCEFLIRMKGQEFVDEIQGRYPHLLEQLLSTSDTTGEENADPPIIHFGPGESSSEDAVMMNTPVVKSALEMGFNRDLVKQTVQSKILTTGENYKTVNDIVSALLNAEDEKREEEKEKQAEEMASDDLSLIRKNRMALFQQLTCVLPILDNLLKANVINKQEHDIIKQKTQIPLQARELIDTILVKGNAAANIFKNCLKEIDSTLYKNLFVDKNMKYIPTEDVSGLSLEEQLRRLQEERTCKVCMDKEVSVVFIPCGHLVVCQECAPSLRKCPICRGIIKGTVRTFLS

`CC(C)C[C@H](NC(=O)[C@@H](O)[C@H](N)Cc1ccccc1)C(=O)OCCNS(=O)(=O)c1cccc2c(N(C)C)cccc12`: the result in experiment [1] and in experiment [2] was Active.
Turning to `CC(C)C[C@H](NC(=O)[C@@H](O)[C@H](N)Cc1ccccc1)C(=O)OCCNS(=O)(=O)c1cccc2c(N=[N+]=[N-])cccc12`, the outcome in experiment [3] was Active.
